Reference: ChEMBL document CHEMBL1146778, “The synthesis and antimicrobial evaluation of a new series of isoxazolinyl oxazolidinones” (2004)
≈ marks a conversion by molar mass, not a printed value.

Legend:
Format in all cases: functional
Staphylococcus aureus [1] = assay: Minimum inhibitory concentration (MIC) against Staphylococcus aureus OC 4172 in the presence of 50% mouse serum
Escherichia coli [2] = assay: Minimum inhibitory concentration (MIC) against Escherichia coli OC 2530 (HS)
Enterococcus faecalis = assay: Minimum inhibitory concentration (MIC) against Enterococcus faecalis ATCC 29212
Enterococcus faecium = assay: Minimum inhibitory concentration (MIC) against Enterococcus faecium OC 3312 (VRE)
Staphylococcus aureus [3] = assay: Tested for the dose to protect the mice from infection with Staphylococcus aureus OC 4172, by subcutaneous administration; settings: sc
Staphylococcus aureus [4] = assay: Minimum inhibitory concentration (MIC) against Staphylococcus aureus OC 4172 in the absence of mouse serum
Escherichia coli [5] = assay: Minimum inhibitory concentration (MIC) against Escherichia coli OC 2605
Mus musculus = assay: Tested for the dose to protect the mice from infection with Staphylococcus aureus OC 4172, by oral administration
Staphylococcus aureus [6] = assay: Minimum inhibitory concentration (MIC) against methicillin-resistant Staphylococcus aureus (MRSA) OC2878

SMILES | MIC (Staphylococcus aureus [1]) | MIC (Escherichia coli [2]) | MIC (Enterococcus faecalis) | MIC (Enterococcus faecium) | ED50 (Staphylococcus aureus [3]) | MIC (Staphylococcus aureus [4]) | MIC (Escherichia coli [5]) | ED50 (Mus musculus) | MIC (Staphylococcus aureus [6])
CC(=O)NC[C@H]1CN(c2ccc(C3=NOC(C(N)=O)C3)c(F)c2)C(=O)O1 (stereo partly specified) | 1 µg/mL | 32 µg/mL (≈ 87.8 µM) | 4 µg/mL (≈ 11 µM) | 4 µg/mL (≈ 11 µM) | 11.8 mg/kg/day | 2 µg/mL (≈ 5.49 µM) | > 64 µg/mL | 40 mg/kg/day | 2 µg/mL (≈ 5.49 µM)
COC(=O)c1cc(-c2ccc(N3C[C@H](CNC(C)=O)OC3=O)cc2F)no1 | > 128 µg/mL | 64 µg/mL (≈ 170 µM) | 16 µg/mL (≈ 42.4 µM) | 8 µg/mL (≈ 21.2 µM) |  | 8 µg/mL (≈ 21.2 µM) | > 128 µg/mL |  | 4 µg/mL (≈ 10.6 µM)
CC(=O)NC[C@H]1CN(c2ccc(C3=NOC(CN(C)C)C3)c(F)c2)C(=O)O1 (stereo partly specified) | 2 µg/mL | 64 µg/mL (≈ 169 µM) | 8 µg/mL (≈ 21.1 µM) | 8 µg/mL (≈ 21.1 µM) |  | 8 µg/mL (≈ 21.1 µM) | 128 µg/mL (≈ 338 µM) |  | 8 µg/mL (≈ 21.1 µM)
COCCNC(=O)C1CC(c2ccc(N3C[C@H](CNC(C)=O)OC3=O)cc2F)=NO1 (stereo partly specified) | 8 µg/mL | 64 µg/mL (≈ 152 µM) | 16 µg/mL (≈ 37.9 µM) | 16 µg/mL (≈ 37.9 µM) |  | 8 µg/mL (≈ 18.9 µM) | > 64 µg/mL |  | 16 µg/mL (≈ 37.9 µM)
CC(=O)NC[C@H]1CN(c2ccc(C3=NOC(c4ccncc4)C3)c(F)c2)C(=O)O1 (stereo partly specified) | 4 µg/mL | 32 µg/mL (≈ 80.3 µM) | 4 µg/mL (≈ 10 µM) | 4 µg/mL (≈ 10 µM) |  | 4 µg/mL (≈ 10 µM) | > 64 µg/mL |  | 1 µg/mL (≈ 2.51 µM)
CC(=O)NC[C@H]1CN(c2ccc(C3=NOC(C(=O)N4CCOCC4)C3)c(F)c2)C(=O)O1 (stereo partly specified) | 8 µg/mL | 32 µg/mL (≈ 73.7 µM) | 8 µg/mL (≈ 18.4 µM) | 8 µg/mL (≈ 18.4 µM) |  | 8 µg/mL (≈ 18.4 µM) | > 128 µg/mL |  | 8 µg/mL (≈ 18.4 µM)
CC(=O)NC[C@H]1CN(c2ccc(C3=NOC(C#N)C3)c(F)c2)C(=O)O1 (stereo partly specified) | 1 µg/mL | 16 µg/mL (≈ 46.2 µM) | 2 µg/mL (≈ 5.78 µM) | 2 µg/mL (≈ 5.78 µM) | 22.4 mg/kg/day | 2 µg/mL (≈ 5.78 µM) | 128 µg/mL (≈ 370 µM) | 22.1 mg/kg/day | 1 µg/mL (≈ 2.89 µM)
CC(=O)NC[C@H]1CN(c2ccc(C3=NOC(c4ccccn4)C3)c(F)c2)C(=O)O1 (stereo partly specified) | 4 µg/mL | 8 µg/mL (≈ 20.1 µM) | 2 µg/mL (≈ 5.02 µM) | 2 µg/mL (≈ 5.02 µM) | 22.8 mg/kg/day | 2 µg/mL (≈ 5.02 µM) | > 64 µg/mL | 31.6 mg/kg/day | 2 µg/mL (≈ 5.02 µM)
CC(=O)NC[C@H]1CN(c2ccc(C3=NOC(CN4CCN(C(C)=O)CC4)C3)c(F)c2)C(=O)O1 (stereo partly specified) | 8 µg/mL | 16 µg/mL (≈ 34.7 µM) | 8 µg/mL (≈ 17.3 µM) | 16 µg/mL (≈ 34.7 µM) |  | 8 µg/mL (≈ 17.3 µM) | > 32 µg/mL |  | 8 µg/mL (≈ 17.3 µM)
CNC(=O)C1CC(c2ccc(N3C[C@H](CNC(C)=O)OC3=O)cc2F)=NO1 (stereo partly specified) | 4 µg/mL | 32 µg/mL (≈ 84.6 µM) | 4 µg/mL (≈ 10.6 µM) | 4 µg/mL (≈ 10.6 µM) |  | 4 µg/mL (≈ 10.6 µM) | > 128 µg/mL |  | 4 µg/mL (≈ 10.6 µM)
CC(=O)NC[C@H]1CN(c2ccc(-c3cc(-c4ccccn4)on3)c(F)c2)C(=O)O1 | 8 µg/mL | 64 µg/mL (≈ 161 µM) | 4 µg/mL (≈ 10.1 µM) | 4 µg/mL (≈ 10.1 µM) | > 40 mg/kg/day | 4 µg/mL (≈ 10.1 µM) | > 128 µg/mL |  | 2 µg/mL (≈ 5.05 µM)
CC(=O)NCC1CC(c2ccc(N3C[C@H](CNC(C)=O)OC3=O)cc2F)=NO1 (stereo partly specified) | 8 µg/mL | 64 µg/mL (≈ 163 µM) | 16 µg/mL (≈ 40.8 µM) | 16 µg/mL (≈ 40.8 µM) |  | 8 µg/mL (≈ 20.4 µM) | > 64 µg/mL |  | 16 µg/mL (≈ 40.8 µM)
CCOC(=O)C1CC(c2ccc(N3C[C@H](CNC(C)=O)OC3=O)cc2F)=NO1 (stereo partly specified) | > 128 µg/mL | 128 µg/mL (≈ 325 µM) | 16 µg/mL (≈ 40.7 µM) | 8 µg/mL (≈ 20.3 µM) |  | 8 µg/mL (≈ 20.3 µM) | > 128 µg/mL |  | 4 µg/mL (≈ 10.2 µM)
CC(=O)NC[C@H]1CN(c2ccc(C3=NOC(Cn4ccnc4)C3)c(F)c2)C(=O)O1 (stereo partly specified) | > 32 µg/mL | > 32 µg/mL | > 32 µg/mL | > 32 µg/mL |  | > 32 µg/mL | > 32 µg/mL |  | 
CC(=O)NC[C@H]1CN(c2ccc(C3=NOC(CN4CCOCC4)C3)c(F)c2)C(=O)O1 (stereo partly specified) | 16 µg/mL | 32 µg/mL (≈ 76.1 µM) | 16 µg/mL (≈ 38.1 µM) | 32 µg/mL (≈ 76.1 µM) |  | 16 µg/mL (≈ 38.1 µM) | 64 µg/mL (≈ 152 µM) |  | 8 µg/mL (≈ 19 µM)
CC(=O)NC[C@H]1CN(c2ccc(N3CCOCC3)c(F)c2)C(=O)O1 [LINEZOLID] |  | 16 µg/mL (≈ 47.4 µM) |  | 4 µg/mL (≈ 11.9 µM) | 5.4 mg/kg/day |  | > 32 µg/mL | 6.8 mg/kg/day | 
